# Entries after “also recorded” stand apart in the source; their conditions may differ. Where a name gives a salt, the structure may show the parent alone.
# Key:
# [1] = blood ionized calcium concentration after ingestion of calcium supplement (clinical tests, FIG. 1)
# Excerpt: For some time microcrystalline hydroxyapatite (MCHA) manufactured from animal bones has been used as a slightly unconventional calcium supplement. Considering that bone mineral is largely calcium phosphate in the form of hydroxyapatite, it seems logical to use MCHA as a source of bone calcium. However, there can be some difficulty in purifying MCHA from native bones because there is considerable excess protein and lipid that must be removed to provide a stable as well as readily digestible product. As might be imagined there is considerable variation in the process parameters for making an MCHA product. In a study intended to compare MCHA to conventional calcium supplements, the inventors analyzed MCHA produced using varied protocols. They were surprised to discover that depending on how the MCHA is manufactured, its rate of bioabsorption changes quite dramatically. After considerable experimentation, the inventors developed the current product which was then compared to calcium carbonate and calcium citrate in both an absorption (measured by blood calcium concentration) and a bone mineralization/density study.
# However, it must be kept in mind that the blood calcium concentration is maintained by withdrawing calcium from the bones if the dietary supply is insufficient.
# In FIG. 1 the blood levels of ionized calcium of two different MHCA preparations (see below for preparation details) are compared to blood calcium levels provided by other calcium supplements.
# [2] = 90 day study of bone calcium level and markers of bone mineralization and turnover; assay type: in vivo; conditions: 90 day experimental duration
Compound,"blood ionized calcium level after ingestion ([1]; human, in vivo)","duration of spiking of blood calcium concentration ([1]; human, in vivo)",blood ionized calcium level after ingestion ([1]; in vivo),"bone calcium level and other markers of bone mineralization and turnover, compared with calcium-free placebo [2]","bone calcium level and other markers of bone mineralization and turnover, supplements compared with each other [2]",duration of spiking of blood calcium concentration ([1]; after ingestion),blood ionized calcium level after ingestion ([1]; compared with calcium-free placebo/control)
O=C(O)CC(O)(CC(=O)O)C(=O)O [calcium citrate],spike above the normal 1 mM concentration,ca. 8 hour,rapid increase in ionized blood calcium,statistically significantly different from the calcium-free placebo,not statistically significantly different from each other,,
O=C([O-])[O-].[Ca+2] [calcium carbonate],,,,statistically significantly different from the calcium-free placebo,not statistically significantly different from each other,ca. 8 hour,spike above the normal 1 mM concentration; also recorded: rapid increase in ionized blood calcium
microcrystalline hydroxyapatite [MCHA],,,not statistically significantly different from the calcium-free placebo,,,,
